Laboratory results reported in publication PMC6856805, “Environmental Risk Assessment for the Active Pharmaceutical Ingredient Mycophenolic Acid in European Surface Waters” (Environmental Toxicology and Chemistry, 2019).
Values after ≈ are worked out from the molar mass of the structure shown. Values joined by “and” are separate entries in the source; they are usually repeats but may differ in a detail not shown here. Identical values can stand only once. Like-named read-outs stand apart in the source and are kept apart here.

Experiments:
[1] = Solubility in buffered aqueous solutions; type: physicochemical; details: buffered aqueous solution, 25 °C, aqueous buffer, read-out: Solubility in water
Description: Syntex derived many basic physicochemical properties for both MPM and MPA in the early 1990s. The results for MPA are mostly given in the present study.

daphnid [2] = assay: animal or person; details: read-out: 48‐h median effect concentration (EC50)
daphnid [3] = details: in vivo
[4] = cited from earlier work; for k photo: ref Franquet‐Griell et al. (2017a)
humans = assay: Derivation of acceptable daily exposure (ADE); parameters: species or system human
Method: Similarly, potential risk for humans from secondary poisoning is assessed by using the acceptable daily exposure (ADE) value for MPA (T. Pfister, unpublished data), which considers toxicological data as well as human experience and covers all routes of uptake, including sensitive subpopulations, over 365 d/annum, with the combined worst‐case uptake through drinking water and fish. No removal of MPA in drinking water production is assumed, but a default intake of 2 L water and 115 g fish/person and day is assumed (European Commission 2011; Murray‐Smith et al. 2012). This combined uptake is then compared with the ADE.
The ADE was derived based on the available nonclinical and clinical data, with the critical effects identified as 1) immunosuppression and secondary effects thereof and 2) teratogenicity; in addition, the relevance of positive results in genotoxicity tests was assessed (T. Pfister, unpublished data). Based on the NOAEL of 2 mg/kg body weight/d in the 12‐mo oral toxicity study in the rat, an ADE was derived by multiplying this NOAEL by a default body weight of 60 kg for humans and dividing by adjustment factors, namely, 6.2 for extrapolation from rats to humans, 10 for variability between individuals, 1 for study duration of 1 yr for rodents, 5 for severity of systemic toxicity (hematopoiesis, immunotoxicity), and 3 for use of an established NOAEL instead of an NOEL; this derivation results in a first ADE of 0.1 mg MPM/60‐kg person/d. […] The weak clastogenic potential observed at higher doses was considered to be irrelevant at these exposure levels. Because the first ADE was lower than, and therefore also protective of, the second, 0.1 mg MPM/60‐kg person/d was selected as the ADE. Stoichiometrically, this ADE for MPM corresponds to 0.0739 mg MPA/d, which was rounded to 0.075 mg or 75 µg MPA/d. The MTDI for an otter was derived by normalizing the ADE for a 60‐kg human to the otter with a default body mass of 10 kg, resulting in an MTDI of 0.0125 mg or 12.5 µg MPA/10‐kg otter/d.

Danio rerio = assay: Fish partial life cycle test, OECD 229 short-term reproduction phase (F0); type: in vivo
Method: At the highest tested concentration of 0.1 mg MPA/L nominal concentration (73 µg/L GMMC), only 2 of 75 hatched fish survived until the end of the test, showing that the test concentration range was well chosen. The most sensitive endpoints in this partial life cycle test were survival and growth in terms of length and mass of the young F1 fish; the effects were comparatively small but statistically significant at p = 0.05. In contrast, the F0 generation was impacted to a lesser extent.
In view of the mammalian mutagenicity and reprotoxicity, a fish partial life-cycle test (PLC; an OECD 229 short-term reproduction test followed by an OECD 210 early-life-stage test) was performed by ECT Oekotoxikologie under GLP with a series of concentrations of MPA in a flow-through setting with the zebrafish Danio rerio (Gilberg & Chambers 2018). Briefly, mature fish (F0 generation) in breeding groups of 14 fish were exposed to four concentrations of the test item (0.0005, 0.0029, 0.0171 and 0.100 mg MPA/L), in fish media as well as to controls without the test item, in two replicates per treatment including controls, for 23 days in a 14-hours light to 10-hours dark photoperiod (OECD 229 phase). During this time period, reproduction parameters (survival of parents, fecundity, e.g., number of eggs, fertility and embryo viability/hatchability) of zebrafish exposed to the test item were assessed in comparison with the controls to determine the lowest observed effect concentration (LOEC) and the NOEC. After 23 days, newly fertilised eggs of the F1 generation were collected and exposed to the corresponding series of test item concentrations, 20 eggs in four replicates each per treatment including controls, until 30 days post-hatch (OECD 210 phase). Lethal and sublethal effects of the test item on eggs, larvae and juvenile fish exposed to the test item were assessed in comparison with controls to determine the LOEC and the NOEC. Samples were taken and analysed by LC–MS/MS (Supplemental Information) and the GMMC for the concentrations determined. Statistical check were made using Probit analyses, Weibull analyses, 2- and 3-parameter normal CDF, Shapiro-Wilk’s test on normal distribution, Levene’s test on variance homogeneity, Fisher's Exact Binomial test, Chi² 2×2 Table Test, Welsh t-test, Step-down Cochran-Armitage test Procedure, Williams Multiple Sequential t-test Procedure and Dunnett`s Multiple t-test Procedure.

[5] = Derivation of predicted no-effect concentrations (PNEC) for STPs and surface water
Description: The surface (fresh) water PNECSW was derived in 2 ways, from the lowest chronic NOEC on the one hand and from the lowest chronic 10% effect concentration (EC10) on the other, from (sub)chronic tests with fish, daphnids, green algae, and cyanobacteria (for the latter 2 the NOErC/ErC10 for growth rate [r] was used), using an assessment factor of 10 (Committee for Medicinal Products for Human Use 2015).

Cyprinus carpio = tested on: Cyprinus carpio; parameters: method as in FASS 2018; details: OECD 203; ref FASS 2018; cited from earlier work
Daphnia magna = assay: OECD 211 chronic reproduction test; type: in vivo; details: GMMC
Method: An OECD 211 chronic reproduction test with the cladoceran Daphnia magna was performed by ECT Oekotoxikologie with a series of concentrations of MPA in daphnid test medium plus medium-only controls over 21 days (Egeler & Chambers 2018). The test medium was exchanged every 2–3 days, the daphnids were fed with live algae (Desmodesmus subspicatus) throughout the exposure. Fresh and old medium samples were analysed by LC–MS/MS (Supplemental Information) and the time-weighted mean measured concentrations (TWMMC) for the concentrations determined. Statistical data evaluation was performed using Williams's test, Fisher's Exact test, Multiple sequentially rejective U-test after Bonferroni-Holm and Probit analysis. The endpoints in this test were survival and size (length) of the parental daphnids at the end of the test; number of young daphnids released per surviving F0 mother; any malformations or undeveloped eggs; and the intrinsic rate of reproduction (IRR), which integrates both survival and reproduction, as a measure of longer-term stability (IRR ~1), growth (IRR >1) or decline (IRR <1) of a population.

## COc1c(C)c2c(c(O)c1CC=C(C)CCC(=O)O)C(=O)OC2 [MPA, 6‐(1,3‐dihydro‐4‐hydroxy‐6‐methoxy‐7‐methyl‐3‐oxo‐5‐isobenzofuranyl)‐4‐methyl‐4‐hexenoic acid]
[1]; pH 5, 25 ± 2 °C
  solubility: 45 µg/mL (≈ 140 µM)
[1]; pH 7, 25 ± 2 °C
  solubility: 710 µg/mL (≈ 2220 µM)
Daphnid [2]
  EC50: 755 µg/mL (≈ 2360 µM)
Daphnid [3]
  48‐h NOEC: 440 mg/L
[4]; Solar Box artificial sunlight reactor
  k photo: 0.004 min^–1
[4]; UV‐C irradiation
  k photo: 0.0284 min^–1
[4]; pH 7, 20 mg/L MPA, ref Marín‐García (2015)
  UV-C photodegradation: negligible photodegradation
humans
  ADE, rounded: 75 µg MPA/d
  ADE, stoichiometric: 0.0739 mg MPA/d
humans; MPA/d
  ADE, rounded: 0.075 mg
Danio rerio; 23 d, GMMC
  EC10 for survival of the parental fish: 0.0189 µg/mL
  NOEC of all endpoints (survival of parental fish, fecundity, fertilization success), F0: 73 µg/L
Danio rerio; 23 d, highest tested nominal concentration
  NOEC of all endpoints (survival of parental fish, fecundity, fertilization success), F0: 100 µg MPA/L
Danio rerio; Danio rerio, in vivo, 23 days
  EC10 for fecundity and fertilization success: > 73 µg MPA/L
[5]; fish EC10, assessment factor of 10
  PNECEC10 (aquatic): 0.58 µg MPA/L and 0.580 µg MPA/L
[5]; fish NOEC, assessment factor of 10
  PNECNOEC (aquatic): 0.132 µg MPA/L
Cyprinus carpio
  acute fish 50% lethal concentration (LC50): > 100 µg/mL
Daphnia magna; 21 d
  EC10, fecundity and reproduction: 0.929 µg/mL (≈ 2.9 µM)
  LOEC, fecundity and reproduction: 1800 µg/L
  LOEC, length of parental daphnids: 1800 µg/L
  NOEC, fecundity and reproduction: 630 µg MPA/L
  NOEC, length of parental daphnids: 630 µg/L
Daphnia magna
  LOEC, mortality/immobility of parental daphnids and intrinsic rate of population increase: > 7530 µg/L
  overall EC10 for the daphnids: 0.929 µg/mL
  overall NOEC for the daphnids: 630 µg MPA/L
Daphnia magna; highest tested concentration
  NOEC, mortality/immobility of parental daphnids and intrinsic rate of population increase: 7530 µg MPA/L
